Results as given in paper PMC7457137, “An Integrated Pharmacokinetic Study of an Acanthopanax senticosus Extract Preparation by Combination of Virtual Screening, Systems Pharmacology, and Multi-Component Pharmacokinetics in Rats” (Frontiers in Pharmacology, 2020).
Read-outs that look alike come from different tables or passages of the source.

Key:
[1] = Multi-component PK in rats after i.v. administration of ASEP; assay type: in vivo, Sprague-Dawley rats; settings: for AUC0-∞ / AUC(0-t) / Cl / MRT0-t / MRT0-∞ / AUC(0-inf) / clearance / MRT last / MRT inf / Vd / half-life / t 1/2: rat plasma, mean ± SD, n=3; for ingredient concentration in rat plasma: PK time points 2.5, 5, 10, 15 and 20 min after single i.v. 3.52 ml/kg of 5 times concentrated ASEP, preliminary examination; for AUC(0-inf): read-out: AUC0-∞; for clearance: read-out: Cl (converted); for MRT last: read-out: MRT0-t; for MRT inf: read-out: MRT0-∞; for half-life: read-out: t 1/2 (converted)
Description: The animal experiments were conducted in line with the Guide for the Care and Use of Laboratory Animals (published by the USA National Institutes of Health, NIH Publication no. 85-23, revised 1996), which were approved by the Animal Care and Use Committee of the College of Animal Science (College of Bee Science), Fujian Agriculture and Forestry University (Approval Number: […]2019004). […] All rats were acclimated to the facilities and environment for 7 days before the experiments. […] The gradient elution was carried out by the mobile phase water with 0.1% formic acid (A) and methanol (B). […] The column temperature and flow rate were at 35 °C and 0.5 ml/min, resepectively. 5 μl sample solution was injected for the HPLC-MS analysis. The electrospray ionization (ESI) source conditions were as follows: block heating temperature was kept at 400 °C; desolvation line temperature was set at 250 °C; dry gas (nitrogen) flow rate was kept at 15 L/min; and auxiliary gas (nitrogen) flow rate was 3 L/min. […] The plasma samples were separated by centrifugation, followed by storing at -20 °C before analysis. […] A DAS 3.0 software (Chinese Pharmacologic Society, Beijing, China) was used to calculate the noncompartmental PK parameters. All the results were presented as mean ± SD, and statistics analysis was done with a single-tailed Student's t test in the work.

[2] = rat, in vivo; cited from earlier work
[3] = Stability of the compounds in rat plasma (LC-MS validation); assay type: in vitro ADME
Description: According to the “Guidelines for non-clinical pharmacokinetics of drugs” issued by Centre for Drug Evaluation, National Medical Products Administration, China ([Guidelines for non-clinical pharmacokinetics of drugs, 2014]), the LC-MS method was validated by linearity, limits of detection (LOD), limits of quantification (LOQ), precision, accuracy, extraction recovery, matrix effect and stability of the 6 compounds in rat plasma. In brief, blank rat plasma was obtained from the other six rats. The standard mixture solution containing the 6 compounds (with the concentration of 1 mg/ml for each) was diluted with […] to prepare a series of working solution containing the 6 compounds (concentration level: 20, 50, 100, 250, 500 ng/ml and 1, 2.5, 5, 10, 25, 50, 100, 125 150, 200 μg/ml) and IS (2.5μg/ml). For calibration curve, 10 μl of the series of working solution containing the IS (2.5μg/ml) was added into 100 μl of blank plasma. Finally, 15 data points (2, 5, 10, 25, 50, 100, 250, 500 ng/ml and 1, 2.5, 5, 10, 12.5 15, 20 μg/ml) were used in the calibration curve linearity. Calibration curves were plotted by weighted linear regression of the peak area ratio of analyte to the IS against the related nominal concentration of the analyte. LOD and LOQ were defined as the detectable concentration at which the ratio of signal to noise was about 3 and 10, respectively ([Huang et al., 2019]). […] The extraction recovery and matrix effect were also assessed at the above-mentioned three concentration levels for the 6 ingredients in the spiked plasma samples ([Huang et al., 2019]). Stability was examined under the condition of setting un-treated plasma samples at ambient temperature for 6 h, and extracted plasma samples in auto-sampler for 10 h, as well as setting plasma samples for three freeze-thaw cycles and at −80°C for 15 days ([Guidelines for non-clinical pharmacokinetics of drugs, 2014]).

[4] = system: human umbilical vein endothelial cells; design: method as in Lin et al., 2017; Hu et al., 2018; settings: ref Lin et al., 2017, Hu et al., 2018; cited from earlier work
zebrafish model = system: zebrafish model; design: method as in Lin et al., 2017; Hu et al., 2018; settings: ref Lin et al., 2017, Hu et al., 2018; cited from earlier work
[5] = High group: single i.v. 3.52 ml/kg of 5 times concentrated ASEP
[6] = Low group: single i.v. 1.76 ml/kg of 5 times concentrated ASEP
[7] = male, Sprague-Dawley, rat, plasma, iv, 1.76 ml/kg, Low group: single i.v. 1.76 ml/kg of 5 times concentrated ASEP
[8] = male, Sprague-Dawley, rat, plasma, iv, 3.52 ml/kg, High group: single i.v. 3.52 ml/kg of 5 times concentrated ASEP
[9] = extracted plasma samples, 10h in auto-sampler vials, high spiked level (HQC, 8000-16000 ng/mL)
[10] = extracted plasma samples, 10h in auto-sampler vials, low spiked level (LQC, 5-30 ng/mL)
[11] = extracted plasma samples, 10h in auto-sampler vials, middle spiked level (MQC, 400-1600 ng/mL)
[12] = rat plasma, 6h at room temperature, high spiked level (HQC, 8000-16000 ng/mL)
[13] = rat plasma, 6h at room temperature, low spiked level (LQC, 5-30 ng/mL)
[14] = rat plasma, 6h at room temperature, middle spiked level (MQC, 400-1600 ng/mL)
[15] = rat plasma, freeze-thaw stability (three cycles), high spiked level (HQC, 8000-16000 ng/mL)
[16] = rat plasma, freeze-thaw stability (three cycles), low spiked level (LQC, 5-30 ng/mL)
[17] = rat plasma, freeze-thaw stability (three cycles), middle spiked level (MQC, 400-1600 ng/mL)
[18] = rat plasma, long-term stability (-80℃,15 days), high spiked level (HQC, 8000-16000 ng/mL)
[19] = rat plasma, long-term stability (-80℃,15 days), low spiked level (LQC, 5-30 ng/mL)
[20] = rat plasma, long-term stability (-80℃,15 days), middle spiked level (MQC, 400-1600 ng/mL)

Compound	AUC0-∞ [1, 5]	AUC(0-t) [1, 5]	Cl [1, 5] [L/h]	MRT0-∞ [1, 5] [min]	AUC0-∞ [1, 6]	AUC(0-t) [1, 6]	Cl [1, 6] [L/h]	MRT0-t [1, 6] [min]	MRT0-∞ [1, 6] [min]	ingredient concentration in rat plasma [1] [ng/mL]	Stability, RE [3, 9] [%]	Stability, RE [3, 10] [%]	Stability, RE [3, 11] [%]	Stability, RE [3, 12] [%]	Stability, RE [3, 13] [%]	Stability, RE [3, 14] [%]	Stability, RE [3, 15] [%]	Stability, RE [3, 16] [%]	Stability, RE [3, 17] [%]	Stability, RE [3, 18] [%]	also measured
O=C(/C=C/c1ccc(O)c(O)c1)O[C@@H]1C[C@@](O)(C(=O)O)C[C@@H](O)[C@@H]1O [5-CQA, 5-caffeoylquinic acid]	4,013.66 ± 42.67 h·ng/ml	4,006.71 ± 42.76 h·ng/ml	0.86 ± 0.01	21 ± 0	2,249.80 ± 109.69 h·ng/ml	2,244.68 ± 109.65 h·ng/ml	0.77 ± 0.04	26.4 ± 1.2	27.6 ± 1.2	–	–	–	–	–	–	–	–	–	–	–	MRT0-t [1, 5]: 19.8 ± 0 min
COc1cc2ccc(=O)oc2c(OC)c1O [isofraxidin]	–	–	–	–	–	–	–	–	–	–	–	–	–	–	–	–	–	–	–	–	elimination in cerebral ischemia-reperfusion rats compared with the normal group [2]: changed
O=C(O)c1ccc(O)c(O)c1 [PCA, protocatechuic acid]	–	–	–	–	–	–	–	–	–	> 0.5	-5.63	-2.62	-6.89	0.16	-6.60	-4.01	-0.14	-0.31	0.85	-10.60	AUC(0-t) ([1]; male, Sprague-Dawley, rat, plasma, iv, 1.76 ml/kg, Low group: single i.v. 1.76 ml/kg of 5 times concentrated ASEP, read-out: AUC0-t): 202 ± 4.82 ng·h/mL; AUC(0-inf) [1, 7]: 204 ± 5.08 ng·h/mL; clearance [1, 7]: 96 mL/min; MRT last [1, 7]: 15 ± 0.6 min; MRT inf [1, 7]: 16.8 ± 1.2 min; Vd ([1]; male, Sprague-Dawley, rat, plasma, iv, 1.76 ml/kg, Low group: single i.v. 1.76 ml/kg of 5 times concentrated ASEP, read-out: Vd): 2.91 ± 0.07 L; half-life [1, 7]: 21 ± 0.6 min; AUC(0-t) ([1]; male, Sprague-Dawley, rat, plasma, iv, 3.52 ml/kg, High group: single i.v. 3.52 ml/kg of 5 times concentrated ASEP, read-out: AUC0-t): 308 ± 14.2 ng·h/mL; AUC(0-inf) [1, 8]: 310 ± 14.1 ng·h/mL; clearance [1, 8]: 126 mL/min; MRT last [1, 8]: 18 ± 0.6 min; MRT inf [1, 8]: 19.2 ± 0.6 min; Vd ([1]; male, Sprague-Dawley, rat, plasma, iv, 3.52 ml/kg, High group: single i.v. 3.52 ml/kg of 5 times concentrated ASEP, read-out: Vd): 4.39 ± 0.22 L; half-life [1, 8]: 24 min; Stability, RE [3, 19]: -9.72%; Stability, RE [3, 20]: -3.16%; effect on VEGF-induced angiogenesis [4]: significant inhibitory effects; effect on VEGF-induced angiogenesis (zebrafish model): significant inhibitory effects
O=C(/C=C/c1ccc(O)c(O)c1)OC1[C@H](O)CC(O)(C(=O)O)C[C@H]1O (stereo partly drawn) [4-CQA]	3,161.48 ± 69.18 h·ng/ml	3,156.93 ± 68.74 h·ng/ml	0.80 ± 0.02	25.8 ± 0.6	1,750.59 ± 64.24 h·ng/ml	1,747.89 ± 64.52 h·ng/ml	0.73 ± 0.03	21.6 ± 0	22.2 ± 0	> 0.5	-6.85	-16.89	14.39	-7.63	-6.42	9.60	-3.17	19.90	-0.64	-1.64	Vd [1, 5]: 0.76 ± 0.02 L; t 1/2 [1, 5]: 39.6 ± 0.6 min; Vd [1, 6]: 0.98 ± 0.11 L; t 1/2 [1, 6]: 55.8 ± 4.8 min; Stability, RE [3, 19]: 17.58%; Stability, RE [3, 20]: 14.43%
